The term EC50 denotes the concentration needed to bring the measured effect to its halfway point.

Holding throughout (format): cell-based
Test [1] has as its system YAP/TAZ-TEAD transcription. The test is described as follows: Reporter gene assay for measuring the inhibition of YAP/TAZ-TEAD transcription (TEAD-responsive element luciferase reporter in Hek293T cells). Particulars: Homo sapiens, HEK-293T; Hek293T cells transfected with TEAD-responsive luciferase reporter, 24 hours incubation. On the procedure: Hek293T cells are cultured in DMEM supplemented with 10% fetal bovine serum, Sodium pyruvate, Sodium bicarbonate, L-glutamine. The cells are harvested and transiently transfected with TEAD-responsive element luciferase reporter. Transfected cells are plated in 384-wells plate containing pre-diluted compounds. After 24 hours incubation at 37° C./5% CO2, assay plates were cooled down to RT and levelled to an equal volume per well, prior to the addition of 25 uL luciferase substrate SteadyLite (Perkin Elmer)/well. The plate was shaken for 10 min at 600 rpm, centrifuged for 1 min at 500 rpm and measured with an Envision reader (PerkinElmer). The amount of relative light units produced by the TEAD reporter is used to calculated percent of inhibition.
The percent of reporter inhibition was calculated in the presence of a positive control inhibitor (100% inhibition) versus a condition with the presence of the vehicle basal activity of the reporter (0% inhibition). The ability of a test compound to inhibit this activity was determined as:
Percentage inhibition=[1−((RLU determined in the presence of vehicle−RLU determined for sample with test compound present) divided by (RLU determined in the presence of vehicle−RLU determined for sample with positive control inhibitor))]*100
The activities of example compounds tested are depicted in Table 6. The activity ranges A, B and C refer to IC50 values in the reporter gene assay as follows: “A”: IC50<1 μM; “B”: 1 μM≤IC50≤20 μM and “C”: IC50>20 μM; NT=not tested.
A general note: In a reporter assay the amount or activity of a reporter protein is the signal.

The subject of a further test is NCI-H226. Description: Mesothelioma cell line proliferation assay (ATPlite), NCI-H226. Particulars: Homo sapiens, 144 h; NCI-H226 cells, 6 days with compound, cell viability by ATPlite. On the procedure: (§1) Mesothelioma cell lines, NCI-H226 and NCI-H2052 (all sourced from the ATCC cell culture collection) are plated in 96-well plates (Corning® 96 Well White Polystyrene Microplate clear flat bottom, white polystyrene (TC-Treated)), at 1500 cells/well in full medium (RPMI 1640 ATCC modification with L-glutamine, HEPES, Phenol Red, Sodium Pyruvate, High glucose, Low sodium bicarbonate and 10% fetal bovine serum). Cells are incubated overnight at 37° C. in an incubator with 5% CO2. Then compounds, dissolved in DMSO, are added in dose-response. Cells are incubated with compound dilutions for another 6 days at 37° C. in an incubator with 5% CO2. Cell viability is quantitated using the ATPlite kit (Perkin-Elmer) and the luminescence is read-out using an Envision instrument (Perkin-Elmer). The amount of relative light units produced using the ATPlite kit is used to calculated percent of inhibition.
(§2) The activities of some example compounds are depicted in Table 7. The activity ranges A, B and C refer to EC50 values in the mesothelioma cell line proliferation assay as described as follows: “A”: EC50<1 μM; “B”: 1 μM≤EC50≤10 μM and “C”: EC50>10 μM; NT: not tested.
In general terms: ATP-based viability assays read luminescence as a measure of living cells.

For another test, the system named is NCI-H2052. The test is described as follows: Mesothelioma cell line proliferation assay (ATPlite), NCI-H2052. Particulars: Homo sapiens, 144 h; NCI-H2052 cells, 6 days with compound, cell viability by ATPlite. The protocol: as §1, §2

With `CS(=O)(=O)NCc1nn(-c2ccc(C(F)(F)F)cc2)c2ccccc12` [compound 3, N-((1-(4-(trifluoromethyl)phenyl)-1H-indazol-3-yl)methyl)methanesulfonamide], the half-maximal effective concentration (EC50) in test [1] was below 1000 nM; with NCI-H226 it was above 10000 nM; with NCI-H2052, above 10000 nM.

Turning to `C=CC(=O)NCc1nn(-c2ccc(C(F)(F)F)cc2)c2ncccc12` [compound 19, N-((1-(4-(trifluoromethyl)phenyl)-1H-pyrazolo[3,4-b]pyridin-3-yl)methyl)acrylamide], the EC50 (in test [1]; in the test with NCI-H226; in the test on NCI-H2052) was below 1000 nM in each case.

`C=CC(=O)Nc1cn(-c2ccc(C(F)(F)F)cc2)c2ccccc12` [compound 20, N-(1-(4-(trifluoromethyl)phenyl)-1H-indol-3-yl)acrylamide]: the values for the EC50 (in test [1]; with NCI-H226; in the test with NCI-H2052) were below 1000 nM, 1000 to 10000 nM and below 1000 nM, respectively.

For the compound `CC(=O)Nc1cn(-c2ccc(C(F)(F)F)cc2)c2ccccc12` [compound 21, N-(1-(4-(trifluoromethyl)phenyl)-1H-indol-3-yl)acetamide], the half-maximal effective concentration (EC50) in test [1] is below 1000 nM; with NCI-H226, below 1000 nM; with NCI-H2052, 1000 to 10000 nM.

As for `C=CC(=O)NCc1cn(-c2ccc(C(F)(F)F)cc2)c2ccccc12` [compound 27, N-((1-(4-(trifluoromethyl)phenyl)-1H-indol-3-yl)methyl)acrylamide], the EC50 in test [1] is below 1000 nM; in the test on NCI-H226 it was above 10000 nM; with NCI-H2052, 1000 to 10000 nM.

Take `C=CC(=O)NCc1cc2ccccc2n1-c1ccc(C(F)(F)F)cc1` [compound 29, N-((1-(4-(trifluoromethyl)phenyl)-1H-indol-2-yl)methyl)acrylamide]: the 50% effective concentration (EC50) (in test [1]; with NCI-H226; in the test with NCI-H2052) was below 1000 nM throughout.

Regarding `C=CC(=O)NCc1cc2ccccc2n1Cc1ccc(C(F)(F)F)cc1` [compound 31, N-((1-(4-(trifluoromethyl)benzyl)-1H-indol-2-yl)methyl)acrylamide], the figures for the concentration giving a half-maximal response (EC50) (in test [1]; with NCI-H226; in the test with NCI-H2052) were below 1000 nM, below 1000 nM and 1000 to 10000 nM, respectively.

On to `C=CC(=O)NCc1nn(-c2ccc(C(F)(F)F)cc2)c2cccnc12` [compound 40, N-((1-(4-(trifluoromethyl)phenyl)-1H-pyrazolo[4,3-b]pyridin-3-yl)methyl)acrylamide], for which the 50% effective concentration (EC50) (in test [1]; with NCI-H226; in the test with NCI-H2052) was below 1000 nM throughout.

For `C=CC(=O)NCc1nn(-c2ccc(C(F)(F)F)cc2)c2ccc(Oc3ccccc3)cc12` [compound 49, N-[[5-phenoxy-1-[4-(trifluoromethyl)phenyl]indazol-3-yl]methyl]prop-2-enamide], the EC50 (in test [1]; in the test with NCI-H226; with NCI-H2052) was below 1000 nM each time.

`C=CC(=O)NCc1nn(-c2ccc(C(F)(F)F)cc2)c2cc(OC3CC3)ccc12` [compound 50, N-[[6-(cyclopropoxy)-1-[4-(trifluoromethyl)phenyl]indazol-3-yl]methyl]prop-2-enamide]: the EC50 (in test [1]; with NCI-H226; with NCI-H2052) was below 1000 nM in each case.

As to `C=CC(=O)NCc1nn(-c2ccc(C(F)(F)F)cc2)c2ccc(OCc3ccccc3)cc12` [compound 54, N-[[5-benzyloxy-1-[4-(trifluoromethyl)phenyl]indazol-3-yl]methyl]prop-2-enamide], the EC50 (in test [1]; with NCI-H226; in the test on NCI-H2052) was below 1000 nM throughout.

For `C=CC(=O)NCc1nn(-c2ccc(C(F)(F)F)cc2)c2ccc(OCc3cc[nH]n3)cc12` [compound 58, N-[[5-(1H-pyrazol-3-ylmethoxy)-1-[4-(trifluoromethyl)phenyl]indazol-3-yl]methyl]prop-2-enamide], the EC50 (in test [1]; in the test on NCI-H226; in the test on NCI-H2052) was below 1000 nM throughout.

Regarding `C=CC(=O)NCc1nn(-c2ccc(C(F)(F)F)cc2)c2cnccc12` [compound 59, N-[[1-[4-(trifluoromethyl)phenyl]pyrazolo[3,4-c]pyridin-3-yl]methyl]prop-2-enamide], the EC50 (in test [1]; in the test on NCI-H226; in the test on NCI-H2052) was below 1000 nM in each case.

Regarding `C#CCOc1ccc2c(c1)c(CNC(=O)C=C)nn2-c1ccc(C(F)(F)F)cc1` [compound 63, N-[[5-prop-2-ynoxy-1-[4-(trifluoromethyl)phenyl]indazol-3-yl]methyl]prop-2-enamide], the EC50 (in test [1]; with NCI-H226; in the test with NCI-H2052) was below 1000 nM each time.

As to `C=CC(=O)NCc1nn(-c2ccc(C(F)(F)F)cc2)c2ccc(OCC3CC3)cc12` [compound 66, N-[[5-(cyclopropylmethoxy)-1-[4-(trifluoromethyl)phenyl]indazol-3-yl]methyl]prop-2-enamide], the EC50 (in test [1]; in the test with NCI-H226; with NCI-H2052) was below 1000 nM in each case.

On to `C=CC(=O)NCc1nn(-c2ccc(C(F)(F)F)cc2)c2ccc(C(F)(F)F)cc12` [compound 71, N-[[5-(trifluoromethyl)-1-[4-(trifluoromethyl)phenyl]indazol-3-yl]methyl]prop-2-enamide], for which the EC50 (in test [1]; in the test with NCI-H226; in the test on NCI-H2052) was below 1000 nM each time.

As to `C=CC(=O)NCc1nn(-c2ccc(C(F)(F)F)cc2)c2cc(C(F)(F)F)ccc12` [compound 74, N-[[6-(trifluoromethyl)-1-[4-(trifluoromethyl)phenyl]indazol-3-yl]methyl]prop-2-enamide], the EC50 (in test [1]; with NCI-H226; in the test with NCI-H2052) was below 1000 nM in each case.

As for `C=CC(=O)NCc1nn(C2CCC(F)(F)CC2)c2ccccc12` [compound 77, N-[[1-(4,4-difluorocyclohexyl)indazol-3-yl]methyl]prop-2-enamide], the concentration for a half-maximal effect (EC50) (in test [1]; in the test on NCI-H226; in the test on NCI-H2052) was below 1000 nM throughout.

The record behind these values is patent US20230202985A1, “Indoles, Indazoles, and Related Analogs for Inhibiting YAP/TAZ-TEAD” (THE KATHOLIEKE UNIVERSITEIT LEUVEN, priority 2021, published 2023).
